The nature of data set [1]: Pharmacokinetics of cilostazol and its active metabolites in rats. The conditions noted are these: single oral cilostazol 300 mg/kg, non-fasting male SD rats, n = 3; parent and metabolites. The format is in vivo, rat. How it is done: Pharmacokinetic variables (Cmax, AUC, Tmax and T1/2) were calculated from the plasma drug concentration-time curve. Cilostazol was orally administered to rats under non-fasting conditions at a single dose of 300 mg/kg to determine the concentration-time profile in serum (n = 3). Values are means (± SEM). […]

A short description of data set [2]: Electron spin resonance (ESR) radical scavenging. Conditions: ESR experiments, data not shown. An excerpt:
In the photothrombotic cerebral infarction model, photoactivation of rose bengal by illumination with green light results in reactive oxygen intermediates (predominantly singlet oxygen and superoxide). […] Therefore, we concluded that the observed inhibitory effects of K-134 on photothrombosis in this model are relevant to its antiplatelet activity but not radical scavenging activity.

On the set-up of data set [3]: method as in PMID 10702882. The conditions noted are these: human healthy male, single dose 100 mg of cilostazol, cited from earlier work.
A further data set concerns platelets. Further details: method as in earlier work. Conditions: cited from earlier work.
Setting [4] is: converted from µg/L, read-out: Cmax.

Read-outs that look alike come from different tables or passages of the source.

Consider `O=c1ccc2cc(OCCCCc3nnnn3C3CCCCC3)ccc2[nH]1` [OPC-13015], for which, in data set [1], the AUC0-24h was 18.3 µM·h, the peak concentration (Cmax) (commonly the maximum level reached in the sampled fluid or tissue) was 1400 nM, the T1/2 is 6.8 h and the Tmax (commonly the time from dosing to the highest level) is 3.2 h. Moreover, the “scavenging activities against singlet oxygen and superoxide anion radical” value in data set [2] is “did not show scavenging activities”. For the same compound, the Cmax in data set [3] (setting [4]) is 330 nM. Further, the “AUC0–72 h” value in data set [3] (converted from µg/L·h) is 6.59 µM·h. Further, in data set [3], the “AUC0–72 h” value was roughly 2423 ng·h/mL and the Cmax is roughly 122 ng/mL. In addition, the “antiplatelet activity, times more potent than cilostazol” value in the data set on platelets is reported as 3 times.

Turning to `O=C1CCc2cc(OCCCCc3nnnn3C3CCC(O)CC3)ccc2N1` (stereo not drawn) [OPC-13213], in data set [1], the AUC0-24h is on record as 127.3 µM·h, the Cmax came out at 9100 nM and the T1/2 is 6.1 h. Besides, in data set [3] (setting [4]), the peak concentration (Cmax) was 170 nM. In addition, in data set [3] (converted from µg/L·h), the “AUC0–72 h” value is listed as 1.60 µM·h. Further, in data set [3], the “AUC0–72 h” value is roughly 617 ng·h/mL and the Cmax is roughly 64 ng/mL. Besides, the “antiplatelet activity, times less potent than cilostazol” value in the data set with platelets is on record as 3 times.
